Measurements from US20080280868A1, “Pyridine Derivatives and Their Use as Cb2 Receptor Modulators” (priority 2004, published 2008).
pEC50: −log10 of the molar value. Where a name gives a salt, the structure may show the parent alone. Read-outs that look alike come from different tables or passages of the source.

Target: T1, human cannabinoid CB2 receptor (Homo sapiens, UniProt P34972)
T1 construct: expressed in transfected cells; host or cells: Saccharomyces cerevisiae strain MMY23 (cassette integrated at the ura3 locus, GPD promoter)
T1 sequence (P34972 whole entry): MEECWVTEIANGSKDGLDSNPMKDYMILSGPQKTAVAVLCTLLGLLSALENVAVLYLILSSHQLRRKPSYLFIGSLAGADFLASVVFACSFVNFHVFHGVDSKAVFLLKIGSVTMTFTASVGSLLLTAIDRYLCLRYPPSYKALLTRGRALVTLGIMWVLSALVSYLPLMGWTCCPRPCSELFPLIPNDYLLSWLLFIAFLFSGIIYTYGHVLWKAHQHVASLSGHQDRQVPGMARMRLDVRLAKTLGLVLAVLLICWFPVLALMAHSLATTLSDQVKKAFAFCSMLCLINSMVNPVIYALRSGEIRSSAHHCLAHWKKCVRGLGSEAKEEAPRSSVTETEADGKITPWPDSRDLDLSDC
Assay: Cannabinoid CB2 receptor agonist activity in yeast cells (FDGlu fluorescence)
Assay type: cell-based
Details: for Emax: read-out: efficacy value (Emax) at the cloned human cannabinoid CB2 receptor
Protocol: The cannabinoid CB2 receptor agonist activity of the compounds of formula (I) was determined in accordance with the following experimental method.
Yeast (Saccharomyces cerevisiae) cells expressing the human cannabinoid CB2 receptor were generated by integration of an expression cassette into the ura3 chromosomal locus of yeast strain MMY23. This cassette consisted of DNA sequence encoding the human CB2 receptor flanked by the yeast GPD promoter to the 5′ end of CB2 and a yeast transcriptional terminator sequence to the 3′ end of CB2. MMY23 expresses a yeast/mammalian chimeric G-protein alpha subunit in which the C-terminal 5 amino acids of Gpal are replaced with the C-terminal 5 amino acids of human Gαi3 (as described in Brown et al. (2000), Yeast 16:11-22).
Agonists were prepared as 10 mM stocks in DMSO. […] Agonist solutions in DMSO (1% final assay volume) were transferred into black, clear bottom, microtitre plates from NUNC (96- or 384-well). Cells were suspended at a density of 0.2 OD600/ml in SC media lacking histidine, uracil, tryptophan, adenine and leucine and supplemented with 10 mM 3-aminotriazole, 0.1M sodium phosphate pH 7.0, and […] fluorescein di-β-D-glucopyranoside (FDGlu). […] After incubation at 30° C. for 24 hours, fluorescence resulting from degradation of FDGlu to fluorescein due to exoglucanase, an endogenous yeast enzyme produced during agonist-stimulated cell growth, was determined using a Spectrofluor microtitre plate reader (Tecan; excitation wavelength: 485 nm; emission wavelength: 535 nm). Fluorescence was plotted against compound concentration and iteratively curve fitted using a four parameter fit to generate a concentration effect value. Efficacy (Emax) was calculated from the equation
Equieffective molar ratio (EMR) values were calculated from the equation

[1] = Emax relative to HU210, yeast expressing human CB2
[2] = yeast (Saccharomyces cerevisiae) expressing human CB2, agonist, 30° C. for 24 hours, read-out: EC50 at the cloned human cannabinoid CB2 receptor

Emax [1]	pEC50 [2]	Compound	pEC50	Emax
> 50%	> 6.52	CC(C)c1cc(N(C)c2cccc(Br)c2)ncc1CNCC1CCOCC1 [Example 49, (3-Bromo-phenyl)-(4-isopropyl-5-{[(tetrahydro-pyran-4-ylmethyl)-amino]-methyl}-pyridin-2-yl)-methyl-amine, compound withformic acid (1:1)]		
		CC(C)c1cc(Nc2cccc(Cl)c2)ncc1CNCC1CCCC1 [Example 50, (3-Chloro-phenyl)-{5-[(cyclopentylmethyl-amino)-methyl]-4-isopropyl-pyridin-2-yl}-amine, compound with formic acid(1:1)]	> 6.52	> 50%
> 50%	> 6.52	CC(C)CNCc1cnc(Nc2cccc(C(F)(F)F)c2)cc1C(C)C [Example 51, [5-(Isobutylamino-methyl)-4-isopropyl-pyridin-2-yl]-(3-trifluoromethyl-phenyl)-amine,compound with formic acid (1:1,25)]		
		Fc1ccc(CNCc2cnc(Nc3cccc(Cl)c3)cc2C2CC2)cc1 [Example 52, (3-Chloro-phenyl)-{4-cyclopropyl-5-[(4-fluorobenzylamino)methyl]-pyridin-2-yl}-amine dihydrochloride]	> 6.52	> 50%
	6.00 to 6.52	Fc1ccc(CNCc2cnc(Nc3ccc(Cl)cc3Cl)cc2C(F)(F)F)cc1 [Example 54, (2,4-Dichlorophenyl)-{5-[(4-fluoro-benzylamino)-methyl]-4-trifluoromethyl-pyridin-2-yl}-amine]		
		CCCNCc1cnc(Nc2cccc(Cl)c2)cc1C1CC1 [Example 55, (3-Chloro-phenyl)-(4-cyclopropyl-5-propylaminomethyl-pyridin-2-yl) amine dihydrochloride]	> 6.52	> 50%
		CC(C)c1cc(Nc2cccc(C(F)(F)F)c2F)ncc1C(C)NCC1CCC1 (stereo not shown) [Example 56, {[1-Cyclobutylmethyl-amino)ethyl]-4-isopropyl-pyridin-2-yl}-(2-fluoro-3-trifluoromethyl-phenyl)-amine dihydrochloride]	> 6.52	> 50%
		CC(C)c1cc(Nc2cccc(Cl)c2)ncc1CN1CCC(F)(F)CC1 [Example 57, (3-Chloro-phenyl)-[5-(4,4-difluoro-piperidin-1-ylmethyl)-4-isopropylpyridin-2-yl]-amine dihydrochloride]	> 6.52	> 50%
		CC(C)c1cc(Nc2cccc(Cl)c2)ncc1CN1CCCC1 [Example 58, (3-Chloro-phenyl)-(4-isopropyl-5-pyrrolidin-1-ylmethyl-pyridin-2-yl)-amine. dihydrochloride]	> 6.52	> 50%
	> 6.52	CC(C)c1cc(Nc2cccc(Cl)c2)ncc1CN1CCC1 [Example 59, (5-Azetidin-1-ylmethyl-4-isopropyl-pyridin-2-yl)-(3-chloro-phenyl)-amine.dihydrochloride]		
		CC(C)c1cc(Nc2cccc(Cl)c2)ncc1CN1CCSCC1 [Example 60, (3-Chloro-phenyl)-(4-isopropyl-5-thiomorpholin-4-ylmethyl-pyridin-2-yl)-amine. dihydrochloride]	> 6.52	> 50%
		CC(C)c1cc(Nc2ccc(Cl)cc2Cl)ncc1CN1CCSCC1 [Example 61, (2,4-Dichloro-phenyl)-(4-isopropyl-5thiomorpholin-4-ylmethyl-pyridin-2-yl)-amine dihydrochloride]	> 6.52	> 50%
		Clc1cccc(Nc2cc(C3CC3)c(CNCC3CCCC3)cn2)c1 [Example 62, (3-Chloro-phenyl)-{5-[(cyclopentylmethyl-amino)-methyl]-4-cyclopropyl-pyridin-2-yl}-amine di-Hydrochloride]	> 6.52	> 50%
		O=S1(=O)CCC(NCc2cnc(Nc3cccc(Cl)c3)cc2C2CC2)CC1 [Example 63, (3-Chloro-phenyl)-{4-cyclopropyl-5-[(1,1-dioxo-hexahydro-1l^6-thiopyran-4-ylamino)-methyl]-pyridin-2-yl}-amine di-hydrochloride]	> 6.52	> 50%
		CC(C)c1cc(Nc2cccc(Cl)c2)ncc1CNC(C)(C)C [Example 65, [5-(tert-Butylamino-methyl)isopropyl-pyridin-2-yl]-(3-chloro-phenyl)amine dihydrochloride]	6.00 to 6.52	> 50%
